Read-outs that look alike come from different tables or passages of the source.
Test system: OF1 mice
Assay: Maximal electroshock test (MES Test)
Type: in vivo
Outline: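 Compound given p.o. (typically 50 mg/kg) 1 h before tonic-clonic convulsions were induced via temporal electrodes (50 Hz, 18 mA, 0.2 s); seizure lasting 3 s or less counted as protection. Read-out is percent protected of five mice per condition; ED50 calculated, blood exposure sampled after shock.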

[1] = Mus musculus, po, 50 mg/kg, p.o., pre-treatment time −1 h, read-out: %-Protection

| Compound | responders at 50 mg/kg [1] [%] | other results |
| --- | --- | --- |
| COCCOC(=O)N(n1c(=O)[nH]c2cc(C(F)F)c(-c3ccnn3C(C)C)cc2c1=O)S(C)(=O)=O [Example 6.07, [7-Difluoromethyl-6-(2-isopropyl-2H-pyrazol-3-yl)-2,4-dioxo-1,4-dihydro-2H-quinazolin-3-yl]-methanesulfonyl-carbamic acid 2-methoxy-ethyl ester] | 40 | – |
| CCC(=O)N(n1c(=O)[nH]c2cc(C(F)(F)F)c(-c3ccnn3CC)cc2c1=O)S(C)(=O)=O [Example 15.02, N-[6-(2-Ethyl-2H-pyrazol-3-yl)-2,4-dioxo-7-trifluoromethyl-1,4-dihydro-2H-quinazolin-3-yl]-N-propionyl-methanesulfonamide] | 20 | – |
| CCCOC(=O)N(n1c(=O)[nH]c2cc(C(C)C)c(-c3ccnn3C)cc2c1=O)S(C)(=O)=O [Example 3.20, [7-Isopropyl-6-(2-methyl-2H-pyrazol-3-yl)-2,4-dioxo-1,4-dihydro-2H-quinazolin-3-yl]-methanesulfonyl-carbamic acid propyl ester] | 100 | – |
| CCCCCOC(=O)N(n1c(=O)[nH]c2cc(C(F)(F)F)c(C(CC)OC)cc2c1=O)S(C)(=O)=O (stereo not drawn) [Example 11.12, Methanesulfonyl-[6-(1-methoxy-propyl)-2,4-dioxo-7-trifluoromethyl-1,4-dihydro-2H-quinazolin-3-yl]-carbamic acid pentyl ester] | 20 | – |
| CCCC(=O)N(n1c(=O)[nH]c2cc(C(F)(F)F)c(C(O)CC)cc2c1=O)S(C)(=O)=O (stereo not drawn) [Example 12.03, N-Butyryl-N-[6-(1-hydroxy-propyl)-2,4-dioxo-7-trifluoromethyl-1,4-dihydro-2H-quinazolin-3-yl]-methanesulfonamide] | 40 | – |
| CCCOC(=O)N(n1c(=O)[nH]c2cc(C(F)(F)F)c(-c3ccnn3C(C)C)cc2c1=O)S(C)(=O)=O [Example 5.07, [6-(2-Isopropyl-2H-pyrazol-3-yl)-2,4-dioxo-7-trifluoromethyl-1,4-dihydro-2H-quinazolin-3-yl]-methanesulfonyl-carbamic acid propyl ester] | 40 | – |
| CC(=O)N(n1c(=O)[nH]c2cc(C(F)(F)F)c(-c3ccnn3C(C)C)cc2c1=O)S(C)(=O)=O [Example 5.01, N-Acetyl-N-[6-(2-isopropyl-2H-pyrazol-3-yl)-2,4-dioxo-7-trifluoromethyl-1,4-dihydro-2H-quinazolin-3-yl]-methanesulfonamide] | 60 | – |
| CSCCC(=O)N(n1c(=O)[nH]c2cc(C(C)C)c(-c3ccnn3C)cc2c1=O)S(C)(=O)=O [Example 3.18, N-[7-Isopropyl-6-(2-methyl-2H-pyrazol-3-yl)-2,4-dioxo-1,4-dihydro-2H-quinazolin-3-yl]-N-(3-methylsulfanyl-propionyl)-methanesulfonamide] | 100 | – |
| CCCCOC(=O)N(n1c(=O)[nH]c2cc(C(F)(F)F)c(-c3ccnn3C(C)C)cc2c1=O)S(C)(=O)=O [Example 5.08, [6-(2-Isopropyl-2H-pyrazol-3-yl)-2,4-dioxo-7-trifluoromethyl-1,4-dihydro-2H-quinazolin-3-yl]-methanesulfonyl-carbamic acid butyl ester] | 100 | – |
| CCCCC(=O)N(n1c(=O)[nH]c2cc(C(F)(F)F)c(-c3ccnn3C)cc2c1=O)S(C)(=O)=O [Example 1.01, N-[6-(2-Methyl-2H-pyrazol-3-yl)-2,4-dioxo-7-trifluoromethyl-1,4-dihydro-2H-guinazolin-3-yl]-N-pentanoyl-methanesulfonamide] | 40 | – |
| CCOC(=O)N(n1c(=O)[nH]c2cc(C(C)C)c(-c3ccnn3C)cc2c1=O)S(C)(=O)=O [Example 3.19, [7-Isopropyl-6-(2-methyl-2H-pyrazol-3-yl)-2,4-dioxo-1,4-dihydro-2H-quinazolin-3-yl]-methanesulfonyl-carbamic acid ethyl ester] | 100 | – |
| CCCC(=O)N(n1c(=O)[nH]c2cc(CC)c(-c3ccnn3C)cc2c1=O)S(C)(=O)=O [Example 2.02, N-Butyryl-N-[7-ethyl-6-(2-methyl-2H-pyrazol-3-yl)-2,4-dioxo-1,4-dihydro-2H-quinazolin-3-yl]-methanesulfonamide] | – | responders at 25 mg/kg (Mus musculus, po, Dose: 25 mg/kg, p.o. (footnote b), pre-treatment time −1 h, read-out: %-Protection): 100% |
| CCC(=O)N(n1c(=O)[nH]c2cc(C(C)C)c(-c3ccnn3C)cc2c1=O)S(C)(=O)=O [Example 3.12, N-[7-Isopropyl-6-(2-methyl-2H-pyrazol-3-yl)-2,4-dioxo-1,4-dihydro-2H-quinazolin-3-yl]-N-propionyl-methanesulfonamide] | 100 | – |
| CCOC(=O)N(n1c(=O)[nH]c2cc(C(F)(F)F)c([C@H]3CCCO3)cc2c1=O)S(C)(=O)=O [Example 10.05, Methanesulfonyl-N—((R)-2,4-dioxo-6-tetrahydro-furan-2-yl-7-trifluoromethyl-1,4-dihydro-2H-quinazolin-3-yl)-carbamic acid ethyl ester] | 40 | – |
| CC(C)c1cc2[nH]c(=O)n(N(C(=O)CN3CCOCC3)S(C)(=O)=O)c(=O)c2cc1-c1ccnn1C [Example 3.31, N-[7-Isopropyl-6-(2-methyl-2H-pyrazol-3-yl)-2,4-dioxo-1,4-dihydro-2H-quinazolin-3-yl]-N-(2-morpholin-4-yl-acetyl)-methanesulfonamide] | 100 | – |
| CC(C)COC(=O)N(n1c(=O)[nH]c2cc(C(F)(F)F)c(-c3ccnn3C)cc2c1=O)S(C)(=O)=O [Example 1.06, Methanesulfonyl-[6-(2-methyl-2H-pyrazol-3-yl)-2,4-dioxo-7-trifluoromethyl-1,4-dihydro-2H-quinazolin-3-yl]-carbamic acid isobutyl ester] | 60 | – |
| CCC(OC)c1cc2c(=O)n(N(C(=O)OCCOC)S(C)(=O)=O)c(=O)[nH]c2cc1C(F)(F)F (stereo not drawn) [Example 11.01, Methanesulfonyl-[6-(1-methoxy-propyl)-2,4-dioxo-7-trifluoromethyl-1,4-dihydro-2H-quinazolin-3-yl]-carbamic acid 2-methoxy-ethyl ester] | 60 | – |
| COC(=O)N(n1c(=O)[nH]c2cc(C(F)(F)F)c(-c3ccnn3C)cc2c1=O)S(C)(=O)=O [Example 1.05, Methanesulfonyl-[6-(2-methyl-2H-pyrazol-3-yl)-2,4-dioxo-7-trifluoromethyl-1,4-dihydro-2H-quinazolin-3-yl]-carbamic acid methyl ester] | 80 | – |
| CCOC(=O)CC(=O)N(n1c(=O)[nH]c2cc(C(F)(F)F)c(-c3ccnn3C(C)C)cc2c1=O)S(C)(=O)=O [Example 5.12, 3-{[6-(2-Isopropyl-2H-pyrazol-3-yl)-2,4-dioxo-7-trifluoromethyl-1,4-dihydro-2H-quinazolin-3-yl]-methanesulfonyl-amino}-3-oxo-propionic acid ethyl ester] | 40 | – |
| COC(=O)N(n1c(=O)c2cc(-c3ccnn3C)c(C(C)C)cc2n(C(=O)OC)c1=O)S(C)(=O)=O [Example 3.32, 7-Isopropyl-3-(methoxycarbonyl-methanesulfonyl-amino)-6-(2-methyl-2H-pyrazol-3-yl)-2,4-dioxo-3,4-dihydro-2H-quinazoline-1-carboxylic acid methyl ester] | 80 | – |
| CCCC(=O)N(n1c(=O)[nH]c2cc(C(F)(F)F)c(-c3ccnn3C)cc2c1=O)S(C)(=O)=O [Example 1.03, N-Butyryl-N-[6-(2-methyl-2H-pyrazol-3-yl)-2,4-dioxo-7-trifluoromethyl-1,4-dihydro-2H-quinazolin-3-yl]-methanesulfonamide] | 100 | – |
| CC(C)COC(=O)N(n1c(=O)[nH]c2cc(C(C)C)c(-c3ccnn3C)cc2c1=O)S(C)(=O)=O [Example 3.03, [7-Isopropyl-6-(2-methyl-2H-pyrazol-3-yl)-2,4-dioxo-1,4-dihydro-2H-quinazolin-3-yl]-methanesulfonyl-carbamic acid isobutyl ester] | – | responders at 15 mg/kg (Mus musculus, po, Dose: 15 mg/kg, p.o. (footnote c), pre-treatment time −1 h, read-out: %-Protection): 40% |
| Cc1nccn1-c1cc2c(=O)n(NS(C)(=O)=O)c(=O)[nH]c2cc1C(F)(F)F [Example 7.0, N-[6-(2-Methyl-imidazol-1-yl)-2,4-dioxo-7-trifluoromethyl-1,4-dihydro-2H-quinazolin-3-yl]-methanesulfonamide] | 0 | – |
| CC(=O)N(n1c(=O)c2cc(-c3ccnn3C)c(C(C)C)cc2n(C(C)=O)c1=O)S(C)(=O)=O [Example 3.24, N-Acetyl-N-[1-acetyl-7-isopropyl-6-(2-methyl-2H-pyrazol-3-yl)-2,4-dioxo-1,4-dihydro-2H-quinazolin-3-yl]-methanesulfonamide] | 100 | responders at 50 mg/kg (Mus musculus, po, Table 5, 50 mg/kg, p.o., pre-treatment time −0.25 h, read-out: %-Protection): 100%; responders at 50 mg/kg (Mus musculus, po, Table 5, 50 mg/kg, p.o., pre-treatment time −0.5 h, read-out: %-Protection): 100%; %-Protection (Table 5, 50 mg/kg, p.o., pre-treatment time −1 h): 100% |
| CCC(=O)N(n1c(=O)[nH]c2cc(CC)c(-c3ccnn3C)cc2c1=O)S(C)(=O)=O [Example 2.10, N-[7-Ethyl-6-(2-methyl-2H-pyrazol-3-yl)-2,4-dioxo-1,4-dihydro-2H-quinazolin-3-yl]-N-propionyl-methanesulfonamide] | 100 | – |
| CCC(OC)c1cc2c(=O)n(N(C(C)=O)S(C)(=O)=O)c(=O)[nH]c2cc1C(F)(F)F (stereo not drawn) [Example 11.08, N-Acetyl-N-[6-(1-methoxy-propyl)-2,4-dioxo-7-trifluoromethyl-1,4-dihydro-2H-quinazolin-3-yl]-methanesulfonamide] | 80 | – |
| COC(=O)N(n1c(=O)[nH]c2cc(C(F)(F)F)c([C@H]3CCCO3)cc2c1=O)S(C)(=O)=O [Example 10.04, Methanesulfonyl-N—((R)-2,4-dioxo-6-tetrahydro-furan-2-yl-7-trifluoromethyl-1,4-dihydro-2H-quinazolin-3-yl)-carbamic acid methyl ester] | 20 | – |

— patent US20130053381A1, “2,4-DIOXO-1,4-DIHYDRO-2H-QUINAZOLIN-3-YL-SULFONAMIDE DERIVATIVES” (NOVARTIS AG, priority 2010, published 2013)
